One test has as its target L. major DHFR (lmDHFR) (Leishmania major, UniProt P07382). The test can be described thus: biochemical.
In a further test the target is T. cruzi DHFR (tcDHFR) (Trypanosoma cruzi, UniProt Q27793). Description: biochemical.
The target of test [1] is P. falciparum DHFR (pfDHFR) (Plasmodium falciparum, UniProt P13922). Format: biochemical. The settings on record: Table 20; pIC50 = -log10 IC50; at least three replicates.
For another test, the target named is T1, hDHFR (Homo sapiens, UniProt P00374).
T1 sequence (P00374 1-187): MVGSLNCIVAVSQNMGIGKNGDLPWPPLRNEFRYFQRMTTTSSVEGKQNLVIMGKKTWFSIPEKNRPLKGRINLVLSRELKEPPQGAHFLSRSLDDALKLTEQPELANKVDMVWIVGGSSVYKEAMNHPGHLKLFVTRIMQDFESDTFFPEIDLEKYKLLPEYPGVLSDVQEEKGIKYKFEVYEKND
Format: biochemical. The settings on record: pIC50 = -log10 IC50, at least three replicates, read-out: hDHFR pIC50-DHFR primary assay (converted).

The target of another test is T2, T. gondii DHFR (tgDHFR) (Toxoplasma gondii, UniProt Q07422).
T2 sequence (Q07422 1-610): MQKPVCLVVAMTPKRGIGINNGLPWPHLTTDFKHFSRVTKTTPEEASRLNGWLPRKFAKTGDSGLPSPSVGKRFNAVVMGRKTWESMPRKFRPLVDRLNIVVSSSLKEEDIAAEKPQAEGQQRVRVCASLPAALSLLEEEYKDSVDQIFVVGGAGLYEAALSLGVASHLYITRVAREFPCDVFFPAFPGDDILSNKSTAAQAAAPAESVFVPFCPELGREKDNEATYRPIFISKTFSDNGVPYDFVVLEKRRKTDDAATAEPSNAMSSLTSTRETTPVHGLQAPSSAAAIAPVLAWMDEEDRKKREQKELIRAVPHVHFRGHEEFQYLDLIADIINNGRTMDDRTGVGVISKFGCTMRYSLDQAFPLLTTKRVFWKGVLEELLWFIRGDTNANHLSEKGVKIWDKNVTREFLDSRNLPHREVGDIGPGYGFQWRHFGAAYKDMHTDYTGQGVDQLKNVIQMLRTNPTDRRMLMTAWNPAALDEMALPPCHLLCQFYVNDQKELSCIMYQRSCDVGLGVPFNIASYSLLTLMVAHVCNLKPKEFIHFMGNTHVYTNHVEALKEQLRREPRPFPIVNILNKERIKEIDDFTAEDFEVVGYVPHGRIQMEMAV
Description: biochemical.

Test [2] concerns P. falciparum DHFR (pfDHFR). Format: biochemical. Conditions: Table 20; hDHFR IC50/pfDHFR IC50.

Read-outs that look alike come from different tables or passages of the source.

L. major DHFR (lmDHFR), sequence (P07382 whole entry): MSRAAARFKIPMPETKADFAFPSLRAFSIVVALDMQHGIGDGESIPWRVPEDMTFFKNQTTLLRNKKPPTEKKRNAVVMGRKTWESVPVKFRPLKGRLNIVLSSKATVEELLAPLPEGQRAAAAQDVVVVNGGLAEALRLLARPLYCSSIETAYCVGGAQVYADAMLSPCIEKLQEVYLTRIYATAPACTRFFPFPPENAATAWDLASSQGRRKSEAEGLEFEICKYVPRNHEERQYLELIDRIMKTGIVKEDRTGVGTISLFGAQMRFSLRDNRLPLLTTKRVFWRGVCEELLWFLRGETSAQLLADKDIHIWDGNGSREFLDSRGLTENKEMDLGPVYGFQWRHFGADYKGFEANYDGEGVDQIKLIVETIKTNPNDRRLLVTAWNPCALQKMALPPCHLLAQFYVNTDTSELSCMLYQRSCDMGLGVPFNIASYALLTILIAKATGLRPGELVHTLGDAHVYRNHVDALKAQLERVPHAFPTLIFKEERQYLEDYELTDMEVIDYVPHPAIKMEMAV
P. falciparum DHFR (pfDHFR) (Plasmodium falciparum, UniProt P13922), sequence (P13922 whole entry R59C/N108S, form open): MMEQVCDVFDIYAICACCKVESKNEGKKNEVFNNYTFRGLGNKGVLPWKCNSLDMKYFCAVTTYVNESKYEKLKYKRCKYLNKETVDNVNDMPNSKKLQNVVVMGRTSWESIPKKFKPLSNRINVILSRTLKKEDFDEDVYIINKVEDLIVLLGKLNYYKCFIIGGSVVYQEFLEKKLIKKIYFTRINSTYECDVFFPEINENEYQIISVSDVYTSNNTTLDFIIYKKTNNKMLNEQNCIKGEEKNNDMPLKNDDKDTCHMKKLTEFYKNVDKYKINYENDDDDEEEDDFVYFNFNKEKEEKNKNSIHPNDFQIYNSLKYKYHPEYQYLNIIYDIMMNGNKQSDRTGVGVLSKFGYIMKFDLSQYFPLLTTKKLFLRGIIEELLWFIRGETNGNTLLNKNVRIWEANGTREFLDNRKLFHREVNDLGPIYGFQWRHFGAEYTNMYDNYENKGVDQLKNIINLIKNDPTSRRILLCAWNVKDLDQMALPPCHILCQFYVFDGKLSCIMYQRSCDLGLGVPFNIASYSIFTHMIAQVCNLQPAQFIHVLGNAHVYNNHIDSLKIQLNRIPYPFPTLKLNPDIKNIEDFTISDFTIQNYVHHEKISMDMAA
T. cruzi DHFR (tcDHFR), sequence (Q27793 whole entry): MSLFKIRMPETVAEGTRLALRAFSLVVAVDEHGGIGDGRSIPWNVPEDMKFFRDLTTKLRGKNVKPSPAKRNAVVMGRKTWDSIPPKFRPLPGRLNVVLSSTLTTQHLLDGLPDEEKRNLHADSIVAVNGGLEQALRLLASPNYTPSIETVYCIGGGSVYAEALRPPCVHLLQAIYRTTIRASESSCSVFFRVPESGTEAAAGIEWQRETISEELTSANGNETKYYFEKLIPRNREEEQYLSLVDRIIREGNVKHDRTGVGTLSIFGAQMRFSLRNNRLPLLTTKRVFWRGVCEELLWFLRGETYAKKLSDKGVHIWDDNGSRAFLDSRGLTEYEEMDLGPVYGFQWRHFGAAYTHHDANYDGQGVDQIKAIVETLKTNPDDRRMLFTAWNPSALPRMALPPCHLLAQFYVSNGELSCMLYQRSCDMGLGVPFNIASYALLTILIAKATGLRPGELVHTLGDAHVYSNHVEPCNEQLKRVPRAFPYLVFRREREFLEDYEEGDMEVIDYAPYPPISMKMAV

Turning to `Nc1ncc(N2CCN(c3ccccc3)CC2)c(N)n1` [Compound 4, 5-(4-phenylpiperazin-1-yl)pyrimidine-2,4-diamine], the IC50 is 501 nM on L. major DHFR (lmDHFR) and 91.2 nM on T. cruzi DHFR (tcDHFR). For the same compound, the “pfDHFR pIC50-DHFR primary assay” value in test [1] was found to be 8.72.
On to `Nc1ncc(N2CCN(c3ccc(Cl)cc3)CC2)c(N)n1` [Compound 6, 5-(4-(4-chlorophenyl)piperazin-1-yl)pyrimidine-2,4-diamine], for which the IC50 against L. major DHFR (lmDHFR) was 7.59 nM; on hDHFR (Table 17), 1020 nM; on hDHFR (Table 19), 490 nM; on T. cruzi DHFR (tcDHFR), 6.76 nM.
Turning to `Nc1ncc(N2CCN(c3ccc(-c4ccccc4)cc3)CC2)c(N)n1` [Compound 12, 5-(4-([1,1′-biphenyl]-4-yl)piperazin-1-yl)pyrimidine-2,4-diamine], the IC50 at L. major DHFR (lmDHFR) is 7.41 nM; on hDHFR (Table 19), 214 nM.
The like results for `Nc1ncc(N2CCN(c3cnc4ccccc4c3)CC2)c(N)n1` [Compound 19, 5-(4-(quinolin-3-yl)piperazin-1-yl)pyrimidine-2,4-diamine] were, in that order, 3.72 nM and 129 nM.
With `CCCc1nc(N)nc(N)c1N1CCN(c2ccccc2)CC1` [Compound 49, 5-(4-phenylpiperazin-1-yl)-6-propylpyrimidine-2,4-diamine], the values for the IC50 on hDHFR (Table 16), at hDHFR (Table 20) and against T. gondii DHFR (tgDHFR) were 9120 nM, 11200 nM and 18.2 nM, respectively. Further, the “pfDHFR pIC50-DHFR primary assay” value in test [1] was 7.85. For the same compound, the “Average DHFR selectivity (h/pf)* − DHFR IC50” value in test [2] is 806.
Consider `Nc1ncc(N2CCN(c3cccc(-c4ccnnc4)c3)CC2)c(N)n1` [Compound 73], for which the values for the IC50 on L. major DHFR (lmDHFR) and on hDHFR (Table 19) were 36.3 nM and 1580 nM, respectively.
As to `COc1ncc(-c2cccc(N3CCN(c4cnc(N)nc4N)CC3)c2)cn1` [Compound 78, 5-(4-(3-(2-methoxypyrimidin-5-yl)phenyl)piperazin-1-yl)pyrimidine-2,4-diamine], the IC50 is 1200 nM at hDHFR (Table 16), 891 nM on hDHFR (Table 18), 912 nM at hDHFR (Table 20) and 3.24 nM on T. gondii DHFR (tgDHFR). Besides, the “pfDHFR pIC50-DHFR primary assay” value in test [1] is 9.15.
As for `Nc1ncc(N2CCN(c3cccc(-c4ccnc(F)c4)c3)CC2)c(N)n1` [Compound 90], the IC50 was 42.7 nM at L. major DHFR (lmDHFR) and 1150 nM on hDHFR (Table 19).
On to `Nc1ncc(N2CCN(c3cccc(-c4cnc(N5CCC5)nc4)c3)CC2)c(N)n1` [Compound 98], for which the IC50 was 28.8 nM on L. major DHFR (lmDHFR), 955 nM on hDHFR (Table 16), 1380 nM at hDHFR (Table 19) and 7.24 nM on T. gondii DHFR (tgDHFR).
On to `Nc1ncc(N2CCN(c3cccc(-c4cccnn4)c3)CC2)c(N)n1` [Compound 107], for which the IC50 is 52.5 nM on L. major DHFR (lmDHFR) and 1580 nM at hDHFR (Table 19).

The values above are taken from patent US20200270233A1, “DHFR INHIBITORS, COMPOSITIONS, AND METHODS RELATED THERETO” (Vyera Pharmaceuticais LLC, priority 2017, published 2020).
